Measurements: patent publication US8759331B2, “X-ray and gamma-photon activable organic compounds, their preparation and their uses” (Centre National de la Recherche Scientifique, priority 2010, dated 2014)
“Also recorded” adds a separate entry of the source.

Assays:
[1] = photolysis under one-photon (UV) irradiation at 366 nm, followed by HPLC/LC-MS; assay type: physicochemical; conditions: 366 nm UV irradiation, physiological conditions / aqueous buffer pH 7
Protocol: The photochemical efficiency of any chromophores is determined by the extinction coefficient (ε) and the quantum yield (Qu) that is characteristic of the observed photochemical event of the chromophore. The product of these quantities (εQu) characterizes the efficiency of the event such as fluorescence or chemical transformation, for example by the incident light.
The photolysis at 366 nm of compound 5 was monitored by the disappearance of the caged hydrocinnamate 5 and by the appearance of the compounds 6 and 7, by using liquid chromatography (LC) or liquid-chromatography-mass spectrometry (LC-MS) techniques. […] In contrast, compound 4 was inert under UV irradiation at 366 nm.
Samples were prepared in c=0.1 mM concentration in aqueous TRIS buffer (pH=7). An aliquot (1 mL) of this solution was irradiated at 366 nm (ε366=3000 M^−1·cm^−1) in a 1 mL quartz cuvette. The evolution of the photolysis was followed by HPLC using C-18 reverse phase chromatography (XTerra, eluents: methanol/HCO2H (0.1% aq), H2O/HCO2H (0.1% aq) detection at 260 and 320 nm).

[2] = radiolysis under X-ray irradiation (17.5 keV), followed by HPLC; assay type: physicochemical; conditions: soft X-ray irradiation 17.5 keV
Protocol: The radiolysis was followed either by the diminution of the caged compound 5, or by the increasing of the photo-products 6 and 7. […] The photo-fragmentation follows a first order kinetic with a time constant of 4.7×10^−3 min^−1.
The evolution of the radiolysis was followed by HPLC using C-18 reverse phase chromatography (XTerra, eluents: methanol/HCO2H (0.1% aq), H2O/HCO2H (0.1% aq) detection at 260 and 320 nm).

| SMILES | photolysis under near UV irradiation (366 nm) [1] | photo-fragmentation under X-ray irradiation [2] |
| --- | --- | --- |
| CC(C)(C)OC(=O)N1CCN(c2ccc3ccc(COC(=O)CCc4ccccc4)nc3c2)CC1 [compound 3] | prone to photolysis | no detectable photo-fragmentation; also recorded: no traces of photo-fragmentation |
| O=C(CCc1ccccc1)OCc1ccc2ccc(N3CCNCC3)cc2n1 [compound 4] | inert | no detectable photo-fragmentation; also recorded: no traces of photo-fragmentation |
